From patent publication US8722703B2, “Fused amino pyridines for the treatment of brain tumors” (Curis, Inc., priority 2009, dated 2014) come the findings set out here.

The data set in a line: PK profile of compound 15 after oral 30 mg/kg, single dose study. It counts as in vivo, mice. The note with it: female, athymic nude (CD-1 nu/nu), mouse, plasma. How it is done:
Female athymic nude (CD-1 nu/nu) were obtained from Charles River Laboratories (Wilmington, Mass.). They were housed in ventilated micro-isolator cages in Curis animal facility conditioned at temperature of 23±1° C., humidity of 50-70%, and a 12-hour light/12-hour dark cycle. The animals were fed with irradiated laboratory rodent diet ad libitum and provided with sterilized water. […] The cell pellet was diluted in HBSS (Hank's balanced salt solution) for implantation. […] The concentration for each compound in the solution was kept below 5 mg/ml. The maximum number of compound in one cassette was 6.30% Captisol (Cydex) was used for all formulation. At various time points (3 mice per time point) following compound administration, mice were euthanized with CO2, blood and tissues were collected. Blood was collected into tubes containing sodium heparin. The plasma was separated via centrifugation and stored at −40° C. before analysis. Tissues including tumors were homogenized in 0.8 ml water. An internal standard was added into the tissue homogenates. The homogenates were extracted with 1 ml ethyl acetate for three times. After evaporation, the residual was reconstituted in 0.1 ml acetonitrile for LC/MS/MS assay (Agilent HPLC 1100 Series).

As a reminder, the AUC(0-inf) is the area under the concentration-time curve extrapolated to infinity. For orientation: Cmax means the peak of the concentration-time curve. Usually Tmax stands for the time from dosing to the highest level. A word on the half-life: it is how long it takes for the measured level to halve. A higher half-life goes with slow decline. On to `CN(C)c1cc2c(cc1Sc1nc3c(N)nccc3n1CCNCC(C)(C)C)OCO2` [Compound 15, 2-(6-(dimethylamino)benzo[d][1,3]dioxol-5-ylthio)-1-(2-(neopentylamino)ethyl)-1H-imidazo[4,5-c]pyridin-4-amine], for which the AUC(0-inf) was found to be 10500 ng·h/mL, the peak level (Cmax) was 1380 ng/mL, the Tmax was 2 h and the half-life was 3.3 h. In addition, where the note is “read-out: AUC0-24”, the AUC(0-t) is 10400 ng·h/mL.
